Reference: patent US8268330B2 (priority 2007, dated 2012)

Experiments:
[1] = tested on: TGFβ1; experiment: TGFβ1 production after exposure to iron chelators (ELISA); assay type: cell-based, human; guinea pig; details: following HIF-1α upregulation and nuclear translocation
Protocol: (§1) Alveolar macrophages were procured from naïve and BCG-vaccinated guinea pigs by lavage of the lungs in situ immediately following euthanasia. The isolated cells were subjected to Percoll gradient centrifugation (BO & Babiuk) to remove contaminating epithelial cells, neutrophils and erythrocytes. The cells were subsequently incubated overnight in chamber slides (Nunc) in RPMI medium with 10% fetal bovine serum (FBS) and antibiotics to allow the cells to adhere. THP-1 and HL60 cells, obtained from the ATCC (Rockville, Md.), were maintained in suspension in RPMI/10% FBS. The various cell types were washed thoroughly in Hank's balanced salt solution (HBSS) before incubation in HBSS without or with mycobactin or desferroxamine at various concentrations and for various length of time (see result section). At the end of the incubation time the spend media were collected and stored at −70° C. for later assay for IL-8 and TNF-α. The cells were then either spotted onto Teflon coated slides for immunolabelling for HIF-1α or HO-1 (see above) or were subjected to differential lysis to procure cytoplasmic and nuclear proteins, respectively. The protein samples were separated on 10% SDS-polyacrylamide gels and blotted onto nitrocellulose membranes. […]
(§2) TNF-α was quantitated using the L929-cytotoxicity assay and TGFβ1 assay was done by ELISA.

[2] = tested on: IL-8; experiment: IL-8 secretion after exposure to iron chelators (ELISA); assay type: cell-based, human; guinea pig; details: following HIF-1α nuclear translocation; enhanced by PMA differentiation of the human cells
[3] = tested on: HIF-1α in THP-1 and HL-60 cells and guinea pig alveolar macrophages; experiment: Induction of HIF-1α in myelomonocytic cells and alveolar macrophages exposed to iron chelators in vitro; assay type: cell-based, human; guinea pig; details: for accumulation of cytoplasmic HIF-1α followed by nuclear translocation in a subset of the cells / concentration for HIF-1α induction effect (molar level): THP-1, HL-60 cells and guinea pig alveolar macrophages
[4] = tested on: TNF-α; experiment: TNF-α production after exposure to iron chelators (L929-cytotoxicity assay); assay type: cell-based, human; guinea pig; details: following HIF-1α upregulation and nuclear translocation
Protocol: as §1, §2

[5] = Iron binding capacity by the ferrozine method; assay type: physicochemical; details: for iron binding capacity: ferrozine method
Protocol: Iron saturated mycobactin J was purchased from Allied Monitor (Fayette, Mo.). Iron was removed and mycobactin purified by initially reconstituting the lyophilized solution of crude Fe^3+-mycobactin J complex in CHCl3 and 4N HCl. The suspension was stirred for 30 min. The water phase was separated and 4N HCl was added. After being stirred for 30 min, water phase was removed; this process was conducted three times to provide clear color solution. The CHCl3 phase was dried over Na2SO4, and concentrated in vacuo. Purification by SiO2 (CHCl3:MeOH=20:1) gave Fe^3+-free mycobactin J. The preparation was determined to be greater than 94% pure by NMR spectroscopy. Crude preparations of mycobactin J (50 mgs) yielded 9.8 mg following iron removal and purification. The iron binding capacity of iron saturated and Fe^3+-free preparations were determined by the ferrozine method (Eagle Diagnostics, Desoto, Tex.).

For `CC(=O)N(O)CCCCCNC(=O)CCC(=O)N(O)CCCCCNC(=O)CCC(=O)N(O)CCCCCN` [desferroxamine, reference compound], which “induction of TGFβ1 production” value [1] is on record?
The value was “minimal”.

And the IL-8 secretion [2]?
The IL-8 secretion was “induction of IL-8 secretion”.

And the “accumulation of cytoplasmic HIF-1α followed by nuclear translocation in a subset of the cells” value [3]?
The value was “induced accumulation of cytoplasmic HIF-1α in a dose-dependent manner”.

And the “concentration for HIF-1α induction effect (molar level)” value [3]?
The value was 10 to 100 µM.

What about the “induction of TNF-α production” value [4] of the same compound?
Its value is “minimal”.

For “Fe^3+-free mycobactin J [Fe^3+-free preparation]”, which iron binding capacity [5] is on record?
The iron binding capacity was 66.7 µmol/L.

For “Fe^3+-mycobactin J complex [Fe^3+-saturated mycobactin]”, which iron binding capacity [5] is on record?
Its iron binding capacity is 0 µmol/L.

Which “induction of TGFβ1 production” value [1] does the source give for mycobactin J here?
Its value is “minimal”.

What about the IL-8 secretion [2] of the same compound?
Its IL-8 secretion is “induction of IL-8 secretion”.

And the “iron binding capacity compared with desferrioxamine” value ([5]; compared on a molar equivalent)?
The value was “lower iron binding capacity than desferrioxamine”.

And the “accumulation of cytoplasmic HIF-1α followed by nuclear translocation in a subset of the cells” value [3]?
Its value is “induced accumulation of cytoplasmic HIF-1α in a dose-dependent manner”.

And the “concentration for HIF-1α induction effect (molar level)” value [3]?
The value was 1 to 5 µM.

What about the “potency at inducing HIF-1α compared with desferrioxamine” value ([3]; THP-1 cells in vitro, molar equivalent) of the same compound?
Its value is “significantly more potent”.

What about the “induction of TNF-α production” value [4] of the same compound?
Its value is “minimal”.
